≈ marks a conversion by molar mass, not a printed value. Read-outs that look alike come from different tables or passages of the source.
System: A. baumannii
Test: MIC, broth microdilution in CAMHB supplemented with human serum, read at 100% growth inhibition
Type: cell-based, Acinetobacter baumannii
Settings: Acinetobacter baumannii, 20% HS, read-out: MIC
Description: MIC determinations were performed using the broth microdilution method and in line with CLSI guidelines M07 and M100 (refs. [37],[38]). Bacterial inocula were prepared by diluting a 0.5 McFarland suspension in CAMHB or lysogeny broth (LB) specifically for A. baylyi isolates. […] MIC values of all of the tested antibiotics were read as the lowest compound concentration inhibiting bacterial growth by naked eye or beyond which the OD600 ceased to decrease.

CN1C(=O)[C@H](CCCCN)NC(=O)[C@H](CCCN)NCc2cccnc2Sc2cccc(-c3ccc(C(=O)O)cc3)c2CNC(=O)[C@@H]1Cc1c[nH]c2ccccc12 [zosurabalpin]
MIC (ROB23377 (AdeS R108S)): 1 µg/mL (≈ 1.26 µM)
MIC (ROB23380 (adeS ISAba1)): 8 µg/mL (≈ 10.1 µM)
MIC (isolate 1061067): 0.25 µg/mL (≈ 0.316 µM)
MIC (isolate 1061145): 0.125 µg/mL (≈ 0.158 µM)
MIC (isolate 1065279): 0.25 µg/mL (≈ 0.316 µM)
MIC (isolate 1065391): 0.25 µg/mL (≈ 0.316 µM)
MIC (isolate 1065549): 0.06 µg/mL (≈ 0.0759 µM)
MIC (isolate 1069554): 0.06 µg/mL (≈ 0.0759 µM)
MIC (isolate 1072184): 0.25 µg/mL (≈ 0.316 µM)
MIC (isolate 1089062): 0.125 µg/mL (≈ 0.158 µM)
MIC (isolate 1089975): 0.125 µg/mL (≈ 0.158 µM)
MIC (isolate 1093170): 0.25 µg/mL (≈ 0.316 µM)
MIC (isolate 1098735): 1 µg/mL (≈ 1.26 µM)
MIC (isolate 1104059): 1 µg/mL (≈ 1.26 µM)
MIC (isolate 1104061): 0.25 µg/mL (≈ 0.316 µM)
MIC (isolate 1104062): 0.25 µg/mL (≈ 0.316 µM)
MIC (isolate 1115481): 0.06 µg/mL (≈ 0.0759 µM)
MIC (isolate 1115495): 0.5 µg/mL (≈ 0.632 µM)
MIC (isolate 1115510): 0.5 µg/mL (≈ 0.632 µM)
MIC (isolate 1115514): 0.25 µg/mL (≈ 0.316 µM)
MIC (isolate 1126813): 0.25 µg/mL (≈ 0.316 µM)
MIC (isolate 1140100): 0.06 µg/mL (≈ 0.0759 µM)
MIC (isolate 1154091): 1 µg/mL (≈ 1.26 µM)
MIC (isolate 1161864): 0.016 µg/mL (≈ 0.0202 µM)
MIC (isolate 1171976): 0.06 µg/mL (≈ 0.0759 µM)
MIC (isolate 1172109): 0.016 µg/mL (≈ 0.0202 µM)
MIC (isolate 1172126): 0.06 µg/mL (≈ 0.0759 µM)
MIC (isolate 1630178): 0.25 µg/mL (≈ 0.316 µM)
MIC (isolate 1630190): 1 µg/mL (≈ 1.26 µM)
MIC (isolate 1630410): 0.25 µg/mL (≈ 0.316 µM)
MIC (isolate 1631625): 0.06 µg/mL (≈ 0.0759 µM)
MIC (isolate 1631735): 0.5 µg/mL (≈ 0.632 µM)
MIC (isolate 1631846): 0.125 µg/mL (≈ 0.158 µM)
MIC (isolate 1631847): 2 µg/mL (≈ 2.53 µM)
MIC (isolate 1631848): 4 µg/mL (≈ 5.06 µM)
MIC (isolate 1631849): 0.06 µg/mL (≈ 0.0759 µM)
MIC (isolate 1631949): 0.5 µg/mL (≈ 0.632 µM)
MIC (isolate 1631953): 0.5 µg/mL (≈ 0.632 µM)
MIC (isolate 1631954): 0.25 µg/mL (≈ 0.316 µM)
MIC (isolate 1631955): 0.06 µg/mL (≈ 0.0759 µM)
MIC (isolate 1632073): 0.06 µg/mL (≈ 0.0759 µM)
MIC (isolate 1632166): 0.25 µg/mL (≈ 0.316 µM)
MIC (isolate 1632273): 0.25 µg/mL (≈ 0.316 µM)
MIC (isolate 1633081): 0.25 µg/mL (≈ 0.316 µM)
MIC (isolate 1633082): 0.5 µg/mL (≈ 0.632 µM)
MIC (isolate 1633098): 0.25 µg/mL (≈ 0.316 µM)
MIC (isolate 1633115): 0.25 µg/mL (≈ 0.316 µM)
MIC (isolate 1633117): 1 µg/mL (≈ 1.26 µM)
MIC (isolate 1633121): 0.5 µg/mL (≈ 0.632 µM)
MIC (isolate 1633124): 1 µg/mL (≈ 1.26 µM)
MIC (isolate 1633269): 2 µg/mL (≈ 2.53 µM)
MIC (isolate 1633271): 1 µg/mL (≈ 1.26 µM)
MIC (isolate 1633272): 1 µg/mL (≈ 1.26 µM)
MIC (isolate 1728772): 0.25 µg/mL (≈ 0.316 µM)
MIC (isolate 1728773): 0.5 µg/mL (≈ 0.632 µM)
MIC (isolate 1728774): 0.25 µg/mL (≈ 0.316 µM)

— PMC10794144, “A novel antibiotic class targeting the lipopolysaccharide transporter” (Nature, 2024)
